Series [1] is described as follows: Solubility in Normal Ringer Solution. The format is physicochemical. The settings on record: aqueous buffer, kinetic from dmso stock, pH 7.4, room temperature. As for the experimental part: Compounds of the invention were also tested for solubility in Normal Ringer Solution. […] Following vortex and incubation for 40 minutes at room temperature, solutions were filtered, quenched with acetonitrile, and analyzed by liquid chromatography. Solubility limits were determined by comparison to a standard curve. […] Solubility is reported as “greater than” if the observed increase between the last 2 dilutions tested is greater than 2-fold.

Series [2] is described as follows: Metabolic stability in liver microsomes. The settings on record: 1 μM test compound; for half-life at 1 μM: human, liver microsomes, 37° C. The format is in vitro ADME, human. In short, it runs like this: (§1)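 Compounds at 1 μM starting concentration were incubated with human, dog or rat liver microsomes plus NADPH-regenerating components at 37 °C. Aliquots taken at 0, 7, 15, 30 and 60 min were quenched in cold acetonitrile/methanol/water and analysed by HPLC/MS/MS.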
(In general: Liver microsomes are a subcellular fraction often used to study metabolism.)

The nature of series [3]: Metabolic stability in liver microsomes. The format is in vitro ADME. The method in brief:
as §1

Series [4] is described as follows: Oral bioavailability of solutions in non-fasted rats. The settings on record: rat, in vivo, oral solution, read-out: Rat % F. The protocol: Early bioavailability studies in rat were conducted with solutions of the compounds of the invention. Compounds were delivered via oral administration as a solution in an appropriate excipient. Example formulations include, but are not limited to: 4% DMSO, 10% Solutol HS-15, and 86% water or 4% DMSO, 5% Tween, 25% Cremophor EL. Target concentrations were typically 1 mg/mL, and administered via oral gavage to non-fasted rats. The absolute bioavailability is the dose-corrected area under the curve (AUC) non-intravenous divided by the dose corrected AUC intravenous. The formula for calculating F for a drug administered by the oral route (PO) is given below:
% F=AUC PO×Dose IV/AUC IV×Dose PO

For series [5], the system named is formalin model in the rat. In words: Formalin-induced pain test. In kind it is in vivo. The protocol: Compound 2 was tested in the formalin-induced pain test reported by Dubuisson et al., Pain (1977) December; 4(2):161-74. Dubuisson et al describe a method for assessing pain and analgesia in rats and cats. Briefly, dilute formalin (50 μL of 3% formalin) is injected into the plantar surface of the hind paw of a rat. […] The initial phase (Phase I: 0-5 min) is thought to have a significant component that is dependent upon direct activation of afferent fibers by formalin and functional TRPA1 (McNamara et al., 2007). The individual responsible for counting the pain behaviors in a particular study is blinded to the treatment groups.
Investigators studied oral administration of Compound 2 at 1, 3 and 10 mg/kg on pain behaviors in the formalin model in the rat. Compound 2 was prepared as solutions in 4% DMSO, 10% Solutol HS15, 86% WFI. Animals were dosed orally with Vehicle (4% DMSO, 10% Solutol, 86% WFI), or Compound 2 at 1, 3 or 10 mg/kg one hour prior to intraplantar formalin. […] (n=8 per group) (*=p<0.05, **=p<0.01, *** p<0.001: 1-tailed T-test)
A reduction in the duration of pain behaviors was also observed with Compound 4 from 0-5 minutes post-formalin administration. Using the methods described above for the formalin assay, Compound 4 was formulated as a solution in 4% DMSO; 5% Tween-80; 20% Cremophor EL; and 71% WFI and administered by oral gavage to rats.
Using the methods described above for the formalin assay, Compound 4 was formulated as a suspension in 0.5% methylcellulose and administered by oral gavage to rats.
The persistence of the response was also studied. Compound 2 was prepared as a solution in 4% DMSO, 10% Solutol HS15, and 86% WFI. Rats were treated with 10 mg/kg of oral doses of Compound 2 or with the vehicle (PO).

The mark [6] stands for this setting: dog liver microsomes, female, read-out: Female Half-Life.
Setting [7] is: rat liver microsomes, both sexes, read-out: Half-Life Both sexes.
Setting [8] is: rat liver microsomes, male, read-out: Male Half-Life.
The mark [9] stands for this setting: 10 mg/kg PO, 1 Hr pre-treatment.
The mark [10] stands for this setting: 10 mg/kg PO, 2 Hr pre-treatment.
Setting [11] is: 10 mg/kg PO, 4 Hr pre-treatment.
Setting [12] is: 10 mg/kg PO, 6 Hr pre-treatment.
[13] abbreviates: 10 mg/kg PO, 15 Min pre-treatment.
Setting [14] is: 10 mg/kg PO, 24 Hr pre-treatment.
Where [15] appears, read: 10 mg/kg PO, 30 Min pre-treatment.
The mark [16] stands for this setting: 1 mpk PO, one hour prior to formalin.
Setting [17] is: 3 mpk PO, one hour prior to formalin.
The mark [18] stands for this setting: 10 mpk PO, one hour prior to formalin.
Setting [19] is: 1 mpk PO, solution in DMSO/Tween-80/Cremophor EL/WFI.
Where [20] appears, read: 1 mpk PO, suspension in 0.5% methylcellulose.

≈ marks a conversion by molar mass, not a printed value. Like-named read-outs stand apart in the source and are kept apart here.

For `C[C@@H](C(=O)Nc1ccnc(-c2cnc(N3CCCC3(C)C)nc2)n1)n1cnc2c1c(=O)n(C)c(=O)n2C` [Compound 1, (S)-2-(1,3-dimethyl-2,6-dioxo-2,3-dihydro-1H-purin-7(6H)-yl)-N-(2′-(2,2-dimethylpyrrolidin-1-yl)-[2,5′-bipyrimidin]-4-yl)propanamide], the solubility at 40 min in series [1] is more than 14.3 µM. The “Human Liver Microsomes Hepatic Clearance” value in series [2] was 16 mL/min/kg. The half-life at 1 μM in series [2] was 9 min; in series [3] (setting [6]) it was 18 min; in series [3] (dog liver microsomes, male, read-out: Male Half-Life), 10 min; in series [3] (setting [7]), 39.2 min; in series [3] (rat liver microsomes, female, read-out: Female Half-Life), 46 min; in series [3] (setting [8]), 22 min. The “Female Hepatic Clearance” value in series [3] (dog liver microsomes, female) was found to be 18 mL/min/kg; in series [3] (rat liver microsomes, female) it was 20 mL/min/kg. In addition, the “Male Hepatic Clearance” value in series [3] (dog liver microsomes, male) was 22 mL/min/kg; in series [3] (rat liver microsomes, male), 29 mL/min/kg. In addition, the bioavailability in series [4] is 46%. The “Duration 0-2 min” value in series [5] (1 mg/kg IV) amounted to 35.50 s; in series [5] (3 mg/kg IV) it was 6.25 s. The “Duration 0-5 min” value in series [5] (1 mg/kg IV) came out at 153.25 s; in series [5] (3 mg/kg IV), 111.25 s.
As for `C[C@@H](C(=O)Nc1ccnc(-c2cnc(N3CCC[C@H]3C(F)(F)F)nc2)n1)n1cnc2c1c(=O)n(C)c(=O)n2C` [Compound 2, (S)-2-(1,3-dimethyl-2,6-dioxo-2,3-dihydro-1H-purin-7(6H)-yl)-N-(2′-((S)-2-(trifluoromethyl)pyrrolidin-1-yl)-[2,5′-bipyrimidin]-4-yl)propanamide], the solubility at 40 min in series [1] was approximately 32.4 µM (≈ 17.6 µg/mL). Also, the “Human Liver Microsomes Hepatic Clearance” value in series [2] came to 8 mL/min/kg. Moreover, the half-life at 1 μM in series [2] was 43 min; in series [3] (dog liver microsomes, both sexes, read-out: Half-Life both sexes) it was 22.9 min; in series [3] (setting [6]), 22.9 min; in series [3] (setting [7]), more than 60 min; in series [3] (setting [8]), 787 min. For the same compound, the “Male Hepatic Clearance” value in series [3] (rat liver microsomes, male) came to 2 mL/min/kg. Besides, the bioavailability in series [4] turned out to be 100%. For the same compound, the “reduction of pain behaviors from 0-5 minutes” value in series [5] (1 mg/kg PO, vs vehicle, did not reach statistical significance) is on record as approximately 14%. The “decrease in the duration of pain behaviors from 0-2 minutes” value in series [5] (1 mg/kg PO, vs vehicle, not statistically significant) is approximately 14%. The “decrease in formalin-induced pain behaviors from 0-2 minutes” value was approximately 72% in series [5] (3 mg/kg PO, vs vehicle) and approximately 89% in series [5] (10 mg/kg PO, vs vehicle). Moreover, the “reduction of duration of pain behaviors from 0-5 minutes” value in series [5] (3 mg/kg PO, vs vehicle) was approximately 46%; in series [5] (10 mg/kg PO, vs vehicle), approximately 60%. The “Duration 0-2 min” value in series [5] (setting [9]) amounted to 14.50 s; in series [5] (setting [10]), 12.00 s; in series [5] (setting [11]) it was 19.00 s; in series [5] (setting [12]) it was 22.75 s; in series [5] (setting [13]), 82.50 s; in series [5] (setting [14]), 96.63 s. The “Duration 0-2 min” value in series [5] (setting [15]) came to 62.50 s; in series [5] (setting [16]), 73.00 s; in series [5] (setting [17]), 23.25 s; in series [5] (setting [18]), 9.25 s. Besides, the “Duration 0-5 min” value turned out to be 146.14 s in series [5] (setting [9]); 118.10 s in series [5] (setting [10]); 135.84 s in series [5] (setting [11]); 156.61 s in series [5] (setting [12]); 185.43 s in series [5] (setting [13]); 197.15 s in series [5] (setting [14]). Moreover, the “Duration 0-5 min” value in series [5] (setting [15]) was determined as 181.40 s; in series [5] (setting [16]) it was 157.38 s; in series [5] (setting [17]), 99.00 s; in series [5] (setting [18]), 73.50 s. In addition, the “decrease in the duration of formalin-induced pain behaviors 0-2 minutes” value in series [5] (10 mg/kg PO, 15 minute to 6 hour pre-treatment, vs vehicle) is reported as 30-87%. Also, the “duration of formalin-mediated pain behaviors” value in series [5] (10 mg/kg PO, 30 minutes to 6 hours prior to formalin injection) is on record as “significantly decreased the duration of formalin-mediated pain behaviors”.
Turning to `C[C@@H](C(=O)Nc1ccnc(-c2cnc(N3CCC[C@@H]3C(F)(F)F)nc2)n1)n1cnc2c1c(=O)n(C)c(=O)n2C` [Compound 4, (S)-2-(1,3-dimethyl-2,6-dioxo-2,3-dihydro-1H-purin-7(6H)-yl)-N-(2′-((R)-2-(trifluoromethyl)pyrrolidin-1-yl)-[2,5′-bipyrimidin]-4-yl)propanamide], the solubility at 40 min in series [1] is more than 31.3 µM. For the same compound, the half-life at 1 μM worked out at 19.8 min in series [2] and 72.6 min in series [3] (setting [7]). Besides, the bioavailability in series [4] came to 100%. The “Duration 0-2 min” value in series [5] (setting [19]) was 76.13 s; in series [5] (setting [20]), 80.38 s; in series [5] (3 mpk PO, solution), 45.25 s; in series [5] (3 mpk PO, suspension), 51.13 s; in series [5] (10 mpk PO, solution), 47.13 s; in series [5] (10 mpk PO, suspension) it was 38.13 s. The “Duration 0-5 min” value came to 197.88 s in series [5] (setting [19]); 186.25 s in series [5] (setting [20]); 175.88 s in series [5] (3 mpk PO, solution); 163.25 s in series [5] (3 mpk PO, suspension); 191.00 s in series [5] (10 mpk PO, solution); 144.25 s in series [5] (10 mpk PO, suspension).

A word on the solubility: it is the concentration that dissolves in the medium under given conditions. Lower therefore signals little dissolved substance. Usually half-life stands for how long it takes for the measured level to halve.

Values taken from US20170050966A1, “INHIBITING THE TRANSIENT RECEPTOR POTENTIAL A1 ION CHANNEL” (HYDRA BIOSCIENCES, INC., priority 2014, published 2017).
